Consider 4 molecules from ChEMBL document CHEMBL1201862, “PubChem BioAssay data set” (2004).

In general, IC50 refers to the concentration that inhibits the measured activity by half. What is called EC50 is the midpoint of the concentration-response curve.

Each structure is given as a SMILES string. The source made the active and inactive calls.

The target in one assay is T1, Coagulation factor XII (Homo sapiens, UniProt P00748).
T1 sequence (P00748 whole entry): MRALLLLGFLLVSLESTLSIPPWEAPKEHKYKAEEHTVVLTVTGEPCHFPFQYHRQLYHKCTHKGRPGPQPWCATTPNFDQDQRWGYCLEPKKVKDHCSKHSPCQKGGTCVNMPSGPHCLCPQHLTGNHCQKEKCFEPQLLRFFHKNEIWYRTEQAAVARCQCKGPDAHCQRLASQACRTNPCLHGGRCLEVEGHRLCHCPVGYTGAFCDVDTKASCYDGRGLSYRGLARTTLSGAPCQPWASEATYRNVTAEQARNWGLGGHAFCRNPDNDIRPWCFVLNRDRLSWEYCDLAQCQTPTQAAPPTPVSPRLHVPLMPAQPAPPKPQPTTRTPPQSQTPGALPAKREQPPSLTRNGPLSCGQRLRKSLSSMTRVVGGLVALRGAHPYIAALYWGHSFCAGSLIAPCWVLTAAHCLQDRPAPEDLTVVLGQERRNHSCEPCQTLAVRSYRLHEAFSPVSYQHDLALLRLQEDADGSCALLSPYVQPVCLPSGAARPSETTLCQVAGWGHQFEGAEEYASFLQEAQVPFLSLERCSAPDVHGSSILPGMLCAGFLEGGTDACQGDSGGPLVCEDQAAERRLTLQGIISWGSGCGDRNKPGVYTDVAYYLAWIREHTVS
The assay is described as follows: Factor XIIa Dose Response Confirmation from Single Well HTS. [Related pubchem assays (depositor defined):AID701]. The assay is classed as functional.

The target in assay [1] is T2, Tyrosine-protein phosphatase non-receptor type 7 (Homo sapiens, UniProt P35236).
T2 sequence (P35236 whole entry): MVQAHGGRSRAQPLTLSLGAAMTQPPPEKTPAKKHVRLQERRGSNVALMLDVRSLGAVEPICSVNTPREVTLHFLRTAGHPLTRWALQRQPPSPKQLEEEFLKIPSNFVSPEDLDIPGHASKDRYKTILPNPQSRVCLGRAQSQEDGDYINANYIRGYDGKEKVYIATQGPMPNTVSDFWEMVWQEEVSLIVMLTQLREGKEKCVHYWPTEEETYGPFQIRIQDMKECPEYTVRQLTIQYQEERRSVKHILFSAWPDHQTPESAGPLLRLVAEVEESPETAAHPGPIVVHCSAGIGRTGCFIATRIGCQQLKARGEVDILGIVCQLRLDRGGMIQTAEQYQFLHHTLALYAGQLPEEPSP
The assay is described as follows: redox-dependent HePTP inhibition, mechanism study, biochemical, fluorescence (AID 2068). The assay is classed as functional.

Assay [2] addresses T3, Dual specificity protein phosphatase 3 (Homo sapiens, UniProt P51452). Description: SAR VHR1 absorbance Assay for In Vitro dose response studies. [Related pubchem assays (depositor defined):AID1654, AID1661, AID1878, AID1992, AID2004].
Assay [3] deals with T3, Dual specificity protein phosphatase 3. The assay is described as follows: SAR VHR1 Fluorescent Assay for In Vitro dose response studies Set 2. [Related pubchem assays (depositor defined):AID1654, AID1661, AID1878]. The format is functional.
Assay [4] has as its target Dual specificity protein phosphatase 6 (Rattus norvegicus, UniProt Q64346). The format is functional.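 Also: confirmatory in vitro dose-response testing of MKP-3 inhibition; recombinant His-tagged MKP-3 made in E. coli BL21 with OMFP substrate.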
The target of assay [5] is T3, Dual specificity protein phosphatase 3. The assay is described as follows: SAR VHR1 Fluorescent Assay for In Vitro dose response studies. [Related pubchem assays (depositor defined):AID1654, AID1661, AID1878, AID1992, AID2004, AID2070, AID2085]. The assay is classed as functional.
Assay [6] has as its target Voltage-dependent T-type calcium channel subunit alpha-1H (Homo sapiens, UniProt O95180). The assay is described as follows: Cav3.2 T-type channel inhibitors, synthesized analogs, SAR follow-up, cell-based, synthetic library set 2, HEK293 HH8, Fluo-4 (AID 493023). The format is functional.
In assay [7] the test system is HEK293. Description: cells. The note with it: Homo sapiens.
The next assay has as its target Hexokinase-1 (Homo sapiens, UniProt P19367). The assay is described as follows: hexokinase 1 activators, dose response, selectivity assay for HKDC1 activator project, biochemical (AID 504762). The format is functional.
For a further assay, the target named is T4, Hexokinase HKDC1 (Homo sapiens, UniProt Q2TB90).
T4 sequence (Q2TB90 whole entry): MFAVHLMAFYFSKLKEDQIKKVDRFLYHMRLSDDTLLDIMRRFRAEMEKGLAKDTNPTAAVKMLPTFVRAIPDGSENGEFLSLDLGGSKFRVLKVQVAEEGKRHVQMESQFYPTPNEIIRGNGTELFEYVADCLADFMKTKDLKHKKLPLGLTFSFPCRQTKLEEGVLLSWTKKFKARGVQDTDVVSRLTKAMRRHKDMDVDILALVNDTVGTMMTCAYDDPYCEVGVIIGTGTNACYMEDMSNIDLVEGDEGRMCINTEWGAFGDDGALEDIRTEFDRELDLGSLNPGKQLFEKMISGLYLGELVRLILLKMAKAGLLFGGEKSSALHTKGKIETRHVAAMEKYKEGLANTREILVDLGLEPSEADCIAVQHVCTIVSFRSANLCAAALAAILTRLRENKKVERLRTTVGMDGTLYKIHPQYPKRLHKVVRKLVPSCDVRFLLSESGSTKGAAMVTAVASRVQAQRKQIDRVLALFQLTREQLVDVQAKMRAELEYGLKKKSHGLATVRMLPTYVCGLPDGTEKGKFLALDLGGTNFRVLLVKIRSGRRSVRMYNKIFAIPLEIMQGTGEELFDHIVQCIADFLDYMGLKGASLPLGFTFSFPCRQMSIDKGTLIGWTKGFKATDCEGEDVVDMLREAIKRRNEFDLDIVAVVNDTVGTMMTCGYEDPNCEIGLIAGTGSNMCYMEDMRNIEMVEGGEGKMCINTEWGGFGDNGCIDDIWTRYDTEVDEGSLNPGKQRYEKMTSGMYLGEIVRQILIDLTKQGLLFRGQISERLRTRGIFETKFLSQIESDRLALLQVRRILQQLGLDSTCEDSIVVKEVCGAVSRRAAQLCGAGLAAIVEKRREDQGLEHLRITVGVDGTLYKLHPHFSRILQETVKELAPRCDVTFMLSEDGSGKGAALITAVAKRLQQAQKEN
The assay is described as follows: HKDC1 hexokinase activators, dose response, biochemical, W721R variant (AID 504730). The assay is classed as functional.

Assay [8] concerns HEK293. The assay is described as follows: cells. As to conditions: Homo sapiens. This is another data set of the same source.
Assay [9] in a line: inhibitors of intracellular T. cruzi replication, confirmation, NIH3T3 host cells, beta-gal luminescence (AID 2044).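 Also: intracellular parasites grown in NIH/3T3 mouse fibroblasts as host cells; luminescent beta-galactosidase reporter signal from transgenic T. cruzi replicating inside host cells; inhibitors lower the luminescence signal.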 The format is functional, cell-based.
Assay [10] concerns the target Peroxisome proliferator-activated receptor gamma/Nuclear receptor coactivator 3 (Homo sapiens, UniProt P37231). The format is functional.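 Also: agonist potency for raising coactivator recruitment to the receptor.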
The target of assay [11] is Peroxisome proliferator-activated receptor gamma/Nuclear receptor coactivator 1 (Homo sapiens, UniProt P37231). The assay is classed as functional.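 Also: agonist potency as compounds enhance coactivator SRC-1 recruitment to PPARgamma.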
For assay [12], the target named is T5, Heat shock factor protein 1 (Mus musculus, UniProt P38532).
T5 sequence (P38532 whole entry): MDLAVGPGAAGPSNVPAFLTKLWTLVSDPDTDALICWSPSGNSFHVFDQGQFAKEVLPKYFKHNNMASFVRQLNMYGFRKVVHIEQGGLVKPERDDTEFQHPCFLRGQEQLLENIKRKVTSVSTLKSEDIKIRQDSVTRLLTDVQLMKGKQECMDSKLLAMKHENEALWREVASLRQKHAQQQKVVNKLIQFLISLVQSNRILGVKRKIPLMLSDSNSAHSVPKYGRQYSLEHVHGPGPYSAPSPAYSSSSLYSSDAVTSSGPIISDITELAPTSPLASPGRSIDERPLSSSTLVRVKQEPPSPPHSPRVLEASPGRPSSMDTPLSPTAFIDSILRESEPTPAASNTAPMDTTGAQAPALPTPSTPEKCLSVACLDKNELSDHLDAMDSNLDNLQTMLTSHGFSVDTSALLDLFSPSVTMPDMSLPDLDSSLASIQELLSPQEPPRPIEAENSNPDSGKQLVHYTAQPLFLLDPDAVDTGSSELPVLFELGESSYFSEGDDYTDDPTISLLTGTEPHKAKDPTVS
Description: HSF1 potentiators in luciferase reporter cells, confirmation, cell-based, NIH3T3, luminescence, dose retest (AID 435004).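 Also: stress induced by proteasome inhibitor MG132 added 30 min after compound; luciferase reporter driven by HSF1 response element in NIH3T3 cells; actives raise luminescence as potentiators of the MG132 stress response.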 The format is functional. In general terms: In a reporter assay the amount or activity of a reporter protein is the signal.

Assay [13] deals with Peroxisome proliferator-activated receptor gamma/Nuclear receptor coactivator 2 (Homo sapiens, UniProt P37231). The assay is classed as functional.

T3 sequence (P51452 whole entry): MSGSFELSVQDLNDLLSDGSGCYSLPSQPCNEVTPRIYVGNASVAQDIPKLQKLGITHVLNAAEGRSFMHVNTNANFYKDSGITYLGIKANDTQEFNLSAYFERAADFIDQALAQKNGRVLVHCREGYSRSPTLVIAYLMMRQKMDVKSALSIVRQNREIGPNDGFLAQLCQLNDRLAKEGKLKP
Hexokinase-1, sequence (P19367 whole entry): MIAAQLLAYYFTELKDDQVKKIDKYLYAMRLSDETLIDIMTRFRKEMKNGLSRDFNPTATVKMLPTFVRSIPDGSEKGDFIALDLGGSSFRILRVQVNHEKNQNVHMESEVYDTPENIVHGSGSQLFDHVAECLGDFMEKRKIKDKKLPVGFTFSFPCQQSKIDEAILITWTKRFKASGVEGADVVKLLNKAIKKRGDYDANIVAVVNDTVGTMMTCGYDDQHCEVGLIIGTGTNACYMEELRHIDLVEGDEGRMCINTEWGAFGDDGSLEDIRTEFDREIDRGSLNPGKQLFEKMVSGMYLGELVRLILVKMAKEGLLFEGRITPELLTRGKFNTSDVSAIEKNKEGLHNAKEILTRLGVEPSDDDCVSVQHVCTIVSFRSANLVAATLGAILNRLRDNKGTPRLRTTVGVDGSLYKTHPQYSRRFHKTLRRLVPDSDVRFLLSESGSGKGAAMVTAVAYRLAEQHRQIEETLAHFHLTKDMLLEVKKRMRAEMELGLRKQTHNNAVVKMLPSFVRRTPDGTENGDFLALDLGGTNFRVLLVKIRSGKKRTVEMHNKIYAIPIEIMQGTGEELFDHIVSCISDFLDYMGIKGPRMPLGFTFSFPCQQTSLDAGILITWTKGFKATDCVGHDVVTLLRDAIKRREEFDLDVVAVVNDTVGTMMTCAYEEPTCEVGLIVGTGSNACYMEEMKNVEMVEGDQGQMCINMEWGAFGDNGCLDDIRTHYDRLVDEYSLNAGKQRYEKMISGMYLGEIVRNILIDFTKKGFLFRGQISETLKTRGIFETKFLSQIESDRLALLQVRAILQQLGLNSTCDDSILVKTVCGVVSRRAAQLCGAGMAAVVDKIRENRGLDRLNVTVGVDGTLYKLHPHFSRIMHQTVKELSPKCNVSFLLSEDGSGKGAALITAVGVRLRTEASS
Voltage-dependent T-type calcium channel subunit alpha-1H, sequence (O95180 whole entry): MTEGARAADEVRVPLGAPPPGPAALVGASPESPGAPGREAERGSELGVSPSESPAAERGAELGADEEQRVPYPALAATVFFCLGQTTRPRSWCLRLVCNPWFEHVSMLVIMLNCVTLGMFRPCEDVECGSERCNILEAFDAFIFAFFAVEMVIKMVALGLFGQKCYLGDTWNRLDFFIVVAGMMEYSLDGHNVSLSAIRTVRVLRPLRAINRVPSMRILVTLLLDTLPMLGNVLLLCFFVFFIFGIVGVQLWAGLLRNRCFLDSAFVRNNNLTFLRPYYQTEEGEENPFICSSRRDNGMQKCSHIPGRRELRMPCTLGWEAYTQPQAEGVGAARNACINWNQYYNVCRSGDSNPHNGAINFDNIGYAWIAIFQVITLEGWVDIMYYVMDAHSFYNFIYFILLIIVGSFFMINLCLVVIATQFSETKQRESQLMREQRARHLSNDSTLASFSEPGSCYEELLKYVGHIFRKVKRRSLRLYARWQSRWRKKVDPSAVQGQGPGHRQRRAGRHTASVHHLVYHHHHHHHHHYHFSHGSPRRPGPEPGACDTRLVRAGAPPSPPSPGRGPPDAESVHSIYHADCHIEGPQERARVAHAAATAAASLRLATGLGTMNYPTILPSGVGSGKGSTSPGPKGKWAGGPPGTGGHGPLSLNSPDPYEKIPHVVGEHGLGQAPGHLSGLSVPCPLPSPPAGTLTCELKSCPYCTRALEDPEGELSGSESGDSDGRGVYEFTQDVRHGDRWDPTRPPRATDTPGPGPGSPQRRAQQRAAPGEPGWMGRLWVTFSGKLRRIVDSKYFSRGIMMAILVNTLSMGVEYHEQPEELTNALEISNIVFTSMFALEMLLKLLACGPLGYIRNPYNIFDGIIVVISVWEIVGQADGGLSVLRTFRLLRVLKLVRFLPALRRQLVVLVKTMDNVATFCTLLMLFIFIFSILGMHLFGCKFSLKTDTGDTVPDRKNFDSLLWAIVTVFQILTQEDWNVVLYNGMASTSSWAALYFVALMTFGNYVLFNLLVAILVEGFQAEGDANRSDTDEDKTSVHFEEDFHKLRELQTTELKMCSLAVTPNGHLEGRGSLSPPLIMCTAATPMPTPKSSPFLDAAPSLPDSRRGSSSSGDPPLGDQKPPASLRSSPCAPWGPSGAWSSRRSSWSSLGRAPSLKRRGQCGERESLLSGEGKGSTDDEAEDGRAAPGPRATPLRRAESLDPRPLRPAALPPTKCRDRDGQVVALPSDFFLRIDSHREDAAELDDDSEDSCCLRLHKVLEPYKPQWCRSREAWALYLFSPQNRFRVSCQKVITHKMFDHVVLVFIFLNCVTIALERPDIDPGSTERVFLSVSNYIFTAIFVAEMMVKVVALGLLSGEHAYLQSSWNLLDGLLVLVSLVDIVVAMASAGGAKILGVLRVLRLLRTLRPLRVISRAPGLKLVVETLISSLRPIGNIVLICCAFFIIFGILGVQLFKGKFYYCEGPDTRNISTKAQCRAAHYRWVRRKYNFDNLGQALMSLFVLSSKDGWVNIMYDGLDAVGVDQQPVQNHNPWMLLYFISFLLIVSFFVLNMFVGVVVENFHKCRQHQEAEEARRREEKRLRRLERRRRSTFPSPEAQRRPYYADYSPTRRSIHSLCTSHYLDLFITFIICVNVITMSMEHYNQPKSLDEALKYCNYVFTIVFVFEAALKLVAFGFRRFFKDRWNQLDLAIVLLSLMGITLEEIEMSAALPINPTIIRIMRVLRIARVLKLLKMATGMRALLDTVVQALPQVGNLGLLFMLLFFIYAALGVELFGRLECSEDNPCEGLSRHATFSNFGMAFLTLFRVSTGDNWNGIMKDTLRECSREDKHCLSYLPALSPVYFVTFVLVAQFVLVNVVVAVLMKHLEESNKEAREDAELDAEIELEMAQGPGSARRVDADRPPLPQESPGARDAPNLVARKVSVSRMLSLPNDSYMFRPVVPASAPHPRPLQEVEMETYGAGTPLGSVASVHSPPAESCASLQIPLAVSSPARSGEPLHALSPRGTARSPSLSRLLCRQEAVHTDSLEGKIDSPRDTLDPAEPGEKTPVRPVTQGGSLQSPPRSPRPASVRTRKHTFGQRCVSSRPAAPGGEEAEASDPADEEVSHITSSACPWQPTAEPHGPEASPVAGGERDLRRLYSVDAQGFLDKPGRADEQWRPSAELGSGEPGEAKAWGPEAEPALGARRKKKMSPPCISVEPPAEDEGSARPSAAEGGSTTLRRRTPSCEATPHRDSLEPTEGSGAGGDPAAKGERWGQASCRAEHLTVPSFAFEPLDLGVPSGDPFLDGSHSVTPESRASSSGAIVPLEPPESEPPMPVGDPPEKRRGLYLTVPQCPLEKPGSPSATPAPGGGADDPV
Dual specificity protein phosphatase 6, sequence (Q64346 whole entry): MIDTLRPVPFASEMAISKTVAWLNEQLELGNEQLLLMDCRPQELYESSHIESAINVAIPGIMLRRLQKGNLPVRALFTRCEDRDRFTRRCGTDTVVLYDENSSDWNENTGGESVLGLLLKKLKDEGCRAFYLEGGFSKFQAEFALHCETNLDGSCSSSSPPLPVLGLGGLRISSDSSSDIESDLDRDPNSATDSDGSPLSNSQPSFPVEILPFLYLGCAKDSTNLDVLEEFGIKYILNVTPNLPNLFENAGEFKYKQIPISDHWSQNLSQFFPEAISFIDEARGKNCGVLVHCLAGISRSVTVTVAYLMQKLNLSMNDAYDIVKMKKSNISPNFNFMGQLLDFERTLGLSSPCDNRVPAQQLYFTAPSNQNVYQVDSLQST

For `COC(=O)[C@H](C)NC(=O)NC(C)CCc1ccccc1` (stereo partly specified), the IC50 on Coagulation factor XII was > 50 µM (inactive).

Take `CN(C)S(=O)(=O)c1cc(C(=O)NC2CCSc3ccccc32)ccc1Cl` (stereo unspecified): the IC50 in [1], in [2], in [3], in assay [4] and in assay [5] was > 100 µM (inactive) throughout.

On to `O=C(NC1CCC2CN(Cc3ccccc3)CC21)c1ccc(Cl)cc1Cl` (stereo unspecified), for which, in assay [6], the concentration giving a half-maximal response (EC50) is 10 µM (active).

As to `O=C(CSc1cccc2cccnc12)N/N=C/c1cccnc1`, the EC50 in the assay with HEK293 [7] was > 59.6 µM (inactive); on Hexokinase-1, > 80 µM (inactive); at Hexokinase HKDC1 it was 27.6 µM (inactive); with HEK293 [8], > 59.6 µM (inactive); in assay [9], 0.579 µM (active); in [10], > 79.4 µM (not active). The values for the EC50 in [11], in [12] and in assay [13] were > 79.4 µM (not active), 6.99 µM (active) and > 79.4 µM (not active), respectively.
